The values that follow come from patent US10780090B2, “Heteroaryl compounds useful as inhibitors of SUMO activating enzyme” (Millennium Pharmaceuticals, Inc., priority 2014, dated 2020).

For the assay, the target named is recombinant human SAE enzyme (Homo sapiens (Human), UniProt Q9UBT2). As to the kind of experiment: SAE HTRF enzyme assay. The assay is classed as biochemical. To be noted: for Percent Inhibition: Concentration 0.111 μM; for IC50: class symbols A/B/C. The procedure: Example 215: SAE HTRF enzyme assay
Chain of recombinant human SAE enzyme (Q9UBT2 whole entry): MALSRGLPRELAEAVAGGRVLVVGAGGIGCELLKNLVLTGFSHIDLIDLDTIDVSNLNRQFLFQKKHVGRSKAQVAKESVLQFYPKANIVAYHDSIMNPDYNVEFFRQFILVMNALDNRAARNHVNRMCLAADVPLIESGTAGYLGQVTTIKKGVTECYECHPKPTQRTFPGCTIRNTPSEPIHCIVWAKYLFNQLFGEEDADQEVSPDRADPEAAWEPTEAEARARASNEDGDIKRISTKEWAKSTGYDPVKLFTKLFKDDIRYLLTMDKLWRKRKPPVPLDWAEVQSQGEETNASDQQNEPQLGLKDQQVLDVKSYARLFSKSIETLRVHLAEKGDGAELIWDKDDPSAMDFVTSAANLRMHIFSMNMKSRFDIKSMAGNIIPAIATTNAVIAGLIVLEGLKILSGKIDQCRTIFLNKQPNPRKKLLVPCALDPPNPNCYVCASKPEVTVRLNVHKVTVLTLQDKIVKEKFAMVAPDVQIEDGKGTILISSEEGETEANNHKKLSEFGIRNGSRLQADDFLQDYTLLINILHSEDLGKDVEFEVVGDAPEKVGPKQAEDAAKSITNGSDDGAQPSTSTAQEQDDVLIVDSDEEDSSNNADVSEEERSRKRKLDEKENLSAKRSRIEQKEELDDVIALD
Chain of recombinant human SAE enzyme (Q9UBE0 whole entry partner): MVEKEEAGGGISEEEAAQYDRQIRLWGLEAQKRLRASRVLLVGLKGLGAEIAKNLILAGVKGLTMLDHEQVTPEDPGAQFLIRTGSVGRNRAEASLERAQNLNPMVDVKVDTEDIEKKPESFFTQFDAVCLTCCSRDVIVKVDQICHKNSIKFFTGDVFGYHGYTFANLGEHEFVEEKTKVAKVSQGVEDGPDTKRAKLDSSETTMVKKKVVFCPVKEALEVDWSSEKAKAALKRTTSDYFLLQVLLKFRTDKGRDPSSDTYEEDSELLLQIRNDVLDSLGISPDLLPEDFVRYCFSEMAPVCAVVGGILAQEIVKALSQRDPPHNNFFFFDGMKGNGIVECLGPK
The SAE enzymatic reaction totals 50 μl and contains 50 mM HEPES Hemisodium (pH 7.5), 0.05% BSA, 5 mM MgCl2, 0.5 μM ATP, 250 μM GSH, 0.01 μM Ubc9-GST, 0.125 μM Sumo-Flag and 0.11 nM recombinant human SAE enzyme. The enzymatic reaction mixture, with and without inhibitor, Is incubated at 24° C. for 105 min in a 384-well plate before termination with […] of Stop/Detection buffer (0.1M HEPES Hemisodium pH 7.5, 0.05% Tween20, 20 mM EDTA, 410 mM KF, 0.53 nM Europium-Cryptate labeled monoclonal anti-Flag M2 Antibody (CisBio International) and 8.125 μg/ml PHYCOLINK goat anti-GST allophycocyanin (XL-APC) antibody (Prozyme)). After incubation for 2 hours at 24° C., quantification of FRET is performed on the Pherostar™ (BMG Labtech). Percentage inhibition values at a single concentration or enzyme inhibition (IC50) values are determined from those curves. One skilled in the art will appreciate that the values generated either as percentage inhibition at a single concentration or IC50 values are subject to experimental variation.
In general terms: TR-FRET usually uses a lanthanide donor and a delayed reading to cut background.

Consider `C[C@](O)(c1csc(C(=O)c2cncnc2N[C@@H]2C[C@H](COS(N)(=O)=O)[C@@H](O)C2)c1)c1cccc(Br)n1` (mixture of isomers) [I-54, [(1R,2S,4R)-4-{[5-({4-[(1S)-1-(6-bromopyridin-2-yl)-1-hydroxyethyl]-2-thienyl}carbonyl)pyrimidin-4-yl]amino}-2-hydroxycyclopentyl]methyl sulfamate and [(1R,2S,4R)-4-{[5-({4-[(1R)-1-(6-bromopyridin-2-yl)-1-hydroxyethyl]-2-thienyl}carbonyl)pyrimidin-4-yl]amino}-2-hydroxycyclopentyl]methyl sulfamate], for which the “Percent Inhibition” value is 99 and the IC50 (in general, the concentration that gives 50% inhibition) is less than 0.01 µM.
In the same order, the values of `NS(=O)(=O)OC[C@H]1C[C@@H](Nc2ncncc2C(=O)c2cc([C@H](O)c3ccccc3)c(Cl)s2)C[C@@H]1O` (mixture of isomers) [I-56, [(1R,2S,4R)-4-{[5-({5-chloro-4-[(R)-hydroxy(phenyl)methyl]-2-thienyl}carbonyl)pyrimidin-4-yl]amino}-2-hydroxycyclopentyl]methyl sulfamate and [(1R,2S,4R)-4-{[5-({5-chloro-4-[(S)-hydroxy(phenyl)methyl]-2-thienyl}carbonyl)pyrimidin-4-yl]amino}-2-hydroxycyclopentyl]methyl sulfamate] are 98 and less than 0.01 µM.
Turning to `C[C@@](O)(c1ccccc1)c1coc(C(=O)c2cncnc2N[C@@H]2C[C@H](COS(N)(=O)=O)[C@@H](O)C2)c1.C[C@](O)(c1ccccc1)c1coc(C(=O)c2cncnc2N[C@@H]2C[C@H](COS(N)(=O)=O)[C@@H](O)C2)c1` (mixture of isomers) [I-58, {(1R,2S,4R)-2-hydroxy-4-[(5-{4-[(1S)-1-hydroxy-1-phenylethyl]-2-furoyl}pyrimidin-4-yl)amino]cyclopentyl}methyl sulfamate and {(1R,2S,4R)-2-hydroxy-4-[(5-{4-[(1R)-1-hydroxy-1-phenylethyl]-2-furoyl}pyrimidin-4-yl)amino]cyclopentyl}methyl sulfamate], the “Percent Inhibition” value stood at 96 and the IC50 is less than 0.01 µM.
In the same order, the values of `COc1ccc(Cl)cc1[C@@H](O)c1cc(C(=O)c2cncnc2N[C@@H]2C[C@H](COS(N)(=O)=O)[C@@H](O)C2)sc1Cl` (mixture of isomers) [I-63, [(1R,2S,4R)-4-{[5-({5-chloro-4-[(R)-(5-chloro-2-methoxyphenyl)(hydroxy)methyl]-2-thienyl}carbonyl)pyrimidin-4-yl]amino}-2-hydroxycyclopentyl]methyl sulfamate and [(1R,2S,4R)-4-{[5-({5-chloro-4-[(S)-(5-chloro-2-methoxyphenyl)(hydroxy)methyl]-2-thienyl}carbonyl)pyrimidin-4-yl]amino}-2-hydroxycyclopentyl]methyl sulfamate] are 97 and less than 0.01 µM.
On to `NS(=O)(=O)OC[C@H]1C[C@@H](Nc2ncncc2C(=O)c2cc([C@]3(c4cccc(Cl)c4)CCO3)c(Cl)s2)C[C@@H]1O` (mixture of isomers) [I-67, [(1R,2S,4R)-4-{[5-({5-chloro-4-[(2R)-2-(3-chlorophenyl)oxetan-2-yl]-2-thienyl}carbonyl)pyrimidin-4-yl]amino}-2-hydroxycyclopentyl]methyl sulfamate and [(1R,2S,4R)-4-{[5-({5-chloro-4-[(2S)-2-(3-chlorophenyl)oxetan-2-yl]-2-thienyl}carbonyl)pyrimidin-4-yl]amino}-2-hydroxycyclopentyl]methyl sulfamate], for which the “Percent Inhibition” value came out at 99 and the IC50 is less than 0.01 µM.
Taken in the same sequence, the figures for `Cc1sc(C(=O)c2cncnc2NC2CC(O)C(COS(N)(=O)=O)C2)cc1[S+]([O-])c1ccccc1` (mixture of isomers) [I-68, [(1R,2S,4R)-2-hydroxy-4-{[5-({5-methyl-4-[(R)-phenylsulfinyl]-2-thienyl}carbonyl)pyrimidin-4-yl]amino}cyclopentyl]methyl sulfamate and [(1R,2S,4R)-2-hydroxy-4-{[5-({5-methyl-4-[(S)-phenylsulfinyl]-2-thienyl}carbonyl)pyrimidin-4-yl]amino}cyclopentyl]methyl sulfamate] were 98 and less than 0.01 µM.
Taken in the same sequence, the figures for `COc1ccccc1[C@@H](O)c1cc(C(=O)c2cncnc2N[C@@H]2C[C@H](COS(N)(=O)=O)[C@@H](O)C2)sc1Cl` (mixture of isomers) [I-85, [(1R,2S,4R)-4-{[5-({5-chloro-4-[(R)-hydroxy(2-methoxyphenyl)methyl]-2-thienyl}carbonyl)pyrimidin-4-yl]amino}-2-hydroxycyclopentyl]methyl sulfamate and [(1R,2S,4R)-4-{[5-({5-chloro-4-[(S)-hydroxy(2-methoxyphenyl)methyl]-2-thienyl}carbonyl)pyrimidin-4-yl]amino}-2-hydroxycyclopentyl]methyl sulfamate] were 97 and less than 0.01 µM.
Taken in the same sequence, the figures for `NS(=O)(=O)OC[C@H]1C[C@@H](Nc2ncncc2C(=O)c2cc([C@@H](O)c3ccccc3Cl)c(Cl)s2)C[C@@H]1O` (mixture of isomers) [I-86, [(1R,2S,4R)-4-{[5-({5-chloro-4-[(S)-(2-chlorophenyl)(hydroxy)methyl]-2-thienyl}carbonyl)pyrimidin-4-yl]amino}-2-hydroxycyclopentyl]methyl sulfamate and [(1R,2S,4R)-4-{[5-({5-chloro-4-[(R)-(2-chlorophenyl)(hydroxy)methyl]-2-thienyl}carbonyl)pyrimidin-4-yl]amino}-2-hydroxycyclopentyl]methyl sulfamate] were 96 and less than 0.01 µM.
In the case of `CO[C@H](c1cccc(Cl)c1)c1cc(C(=O)c2cncnc2N[C@@H]2C[C@H](COS(N)(=O)=O)[C@@H](O)C2)sc1Cl` (mixture of isomers) [I-90, [(1R,2S,4R)-4-{[5-({5-chloro-4-[(R)-(3-chlorophenyl)(methoxy)methyl]-2-thienyl}carbonyl)pyrimidin-4-yl]amino}-2-hydroxycyclopentyl]methyl sulfamate and [(1R,2S,4R)-4-{[5-({5-chloro-4-[(S)-(3-chlorophenyl)(methoxy)methyl]-2-thienyl}carbonyl)pyrimidin-4-yl]amino}-2-hydroxycyclopentyl]methyl sulfamate], the “Percent Inhibition” value stood at 97 and the IC50 was less than 0.01 µM.
Taken in the same sequence, the figures for `CN[C@@H](c1cccc(Cl)c1)c1cc(C(=O)c2cncnc2N[C@@H]2C[C@H](COS(N)(=O)=O)[C@@H](O)C2)sc1Cl.CN[C@H](c1cccc(Cl)c1)c1cc(C(=O)c2cncnc2N[C@@H]2C[C@H](COS(N)(=O)=O)[C@@H](O)C2)sc1Cl` (mixture of isomers) [I-95, [(1R,2S,4R)-4-{[5-({5-Chloro-4-[(S)-(3-chlorophenyl)(methylamino)methyl]-2-thienyl}carbonyl)pyrimidin-4-yl]amino}-2-hydroxycyclopentyl]methyl sulfamate and [(1R,2S,4R)-4 {[5-({5-Chloro-4-[(R)-(3-chlorophenyl)(methylamino)methyl]-2-thienyl}carbonyl)pyrimidin-4-yl]amino}-2-hydroxycyclopentyl]methyl sulfamate] were 97 and less than 0.01 µM.
As to `C[C@@](O)(c1cccc(Cl)c1)c1cc(C(=O)c2cncnc2N[C@@H]2C[C@H](COS(N)(=O)=O)[C@@H](O)C2)sc1Cl` (mixture of isomers) [I-102, [(1R,2S,4R)-4-{[5-({5-Chloro-4-[(1S)-1-(3-chlorophenyl)-1-hydroxyethyl]-2-thienyl}carbonyl)pyrimidin-4-yl]amino}-2-hydroxycyclopentyl]methyl sulfamate and [(1R,2S,4R)-4-{[5-({5-Chloro-4-[(1R)-1-(3-chlorophenyl)-1-hydroxyethyl]-2-thienyl}carbonyl)pyrimidin-4 yl]amino}-2-hydroxycyclopentyl]methyl sulfamate], the “Percent Inhibition” value was 94 and the IC50 is less than 0.01 µM.
As for `NS(=O)(=O)OC[C@H]1C[C@@H](Nc2ncncc2C(=O)c2cc([C@H](O)c3ccc(Cl)s3)c(Cl)s2)C[C@@H]1O` (mixture of isomers) [I-103, [(1R,2S,4R)-4-{[5-({5-chloro-4-[(S)-(5-chloro-2-thienyl)(hydroxy)methyl]-2-thienyl}carbonyl)pyrimidin-4-yl]amino}-2-hydroxycyclopentyl]methyl sulfamate and [(1R,2S,4R)-4-{[5-({5-chloro-4-[(R)-(5-chloro-2-thienyl)(hydroxy)methyl]-2-thienyl}carbonyl)pyrimidin-4-yl]amino}-2-hydroxycyclopentyl]methyl sulfamate], the “Percent Inhibition” value was found to be 96 and the IC50 was less than 0.01 µM.
In the same order, the values of `NS(=O)(=O)OC[C@H]1C[C@@H](Nc2ncncc2C(=O)c2cc([C@@]3(C4=CCCCC4)CCCO3)cs2)C[C@@H]1O` (mixture of isomers) [I-116, [(1R,2S,4R)-4-{[5-({4-[(2S)-2-(cyclohex-1-en-1-yl)tetrahydrofuran-2-yl]-2-thienyl}carbonyl)pyrimidin-4-yl]amino}-2-hydroxycyclopentyl]methyl sulfamate and [(1R,2S,4R)-4-{[5-({4-[(2R)-2-(cyclohex-1-en-1-yl)tetrahydrofuran-2-yl]-2-thienyl}carbonyl)pyrimidin-4-yl]amino}-2-hydroxycyclopentyl]methyl sulfamate] are 96 and less than 0.01 µM.
